Results reported in US20240024295A1, “COMPOSITIONS AND METHODS FOR INHIBITING HAIR GROWTH” (priority 2020, published 2024).

Test system: C3H mice
Assay: Telogen Conversion Assay
Type: in vivo
Conditions: for hair regrowth as compared to the control group (placebo): applied daily to mice, at the appropriate dose-level, week 3 and week 4, FIGURE; for effect on hair growth (average grade): average grade of 7 mice after 23 days, example written in present tense; for Average Grades, 23 Days: average of 7 mice after 23 days
Procedure: FP receptor antagonists are tested for their potential to grow hair using the Telogen Conversion Assay. The Telogen Conversion Assay measures the potential of a FP receptor antagonist to inhibit in mice the conversion of hair in the resting stage of the hair growth cycle (“telogen”), to the growth stage of the hair growth cycle (“anagen”), and to assess the rate of anagen growth.
Without intending to be limited by theory, there are three principal phases of the hair growth cycle: anagen, catagen, and telogen. It is believed that there is a long telogen period in C3H mice (Harian Sprague Dawley, Inc., Indianapolis, IN) from approximately 40 days of age until about 75 days of age, when hair growth is synchronized. It is believed that after 75 days of age, hair growth is no longer synchronized. Wherein about 40 day-old mice with dark fur (brown or black) are used in hair growth experiments, melanogenesis occurs along with hair (fur) growth wherein the topical application of hair growth inducers is evaluated. The Telogen Conversion Assay herein is used to screen FP receptor antagonists for potential hair growth by measuring melanogenesis and/or inhibition of expected hair growth.
Three groups of 44 day-old C3H mice are used: a vehicle control group, a positive control group, and a test FP receptor antagonist group, wherein the test FP receptor antagonist group is administered a FP receptor antagonist. The length of the assay is typically 24 days with 15 treatment days (wherein the treatment days occur Mondays through Fridays). Day 1 is the first day of treatment. Typical dosage concentrations are set forth in Table 1, however the skilled artisan will readily understand that such concentrations may be modified.
The mice are treated topically Monday through Friday on their lower back (base of tail to the lower rib). A pipette and tip are used to deliver 400 μL to each mouse's back. The 400 μL application is applied slowly while moving hair on the mouse to allow the application to reach the skin.
While each treatment is being applied to the mouse topically, a visual grade of from 0 to 4 will be given to the skin color in the application area of each animal. As a mouse converts from telogen to anagen, its skin color will become less pink and more bluish-black.

[1] = visual skin/hair grade 0 (pink skin) to 4 (full anagen), topical

| Compound | hair regrowth as compared to the control group (placebo) | effect on hair growth (average grade) | Average Grades, 23 Days [1] | Average Grades, 25 Days (visual skin/hair grade 0 (pink skin) to 4 (full anagen), average of 7 mice after 25 days, topical) | Average Grades, 26 Days (visual skin/hair grade 0 (pink skin) to 4 (full anagen), average of 7 mice after 26 days, topical) |
| --- | --- | --- | --- | --- | --- |
| O=C(N[C@H](c1ccccc1)c1ccccn1)[C@@H]1SCCN1S(=O)(=O)c1ccc(-c2ccccc2)cc1 [Example 3] | inhibited hair regrowth | significantly reduces hair growth |  |  |  |
| CC(C)OC(=O)CCC/C=C\CC1C(/C=C/[C@H](O)C2Cc3ccccc3C2)[C@@H](F)C[C@@H]1O (stereo partly drawn) [Example 4] |  | significantly reduces hair growth |  |  |  |
| Ile-Leu-Gly-His-(citrulline)-Asp-Tyr-Lys [Example 5] |  | significantly reduces hair growth |  |  |  |
| O=C(O)CCC/C=C\CC1C(/C=C/[C@H](O)C2Cc3ccccc3C2)[C@@H](F)C[C@@H]1O (stereo partly drawn) [Example 1] |  |  | 0.4 | 0.1 | 0.7 |
| COC(=O)CCC/C=C\CC1C(/C=C/[C@H](O)C2Cc3ccccc3C2)[C@@H](F)C[C@@H]1O (stereo partly drawn) [Example 2] | inhibited hair regrowth |  | 0.1 |  |  |
